According to patent US20140288044A1, “COMPOSITIONS AND THERAPEUTIC USES OF IKK-RELATED KINASE EPSILON AND TANKBINDING KINASE 1 INHIBITORS” (Alzheimer's Institute of America, Inc., priority 2011, published 2014):

These compounds were tested against T1, IKKε (Homo sapiens, UniProt Q14164) (assay: In-vitro IKKε kinase assay (radiolabelled ATP, filterplate)). Details: "sensitized" assay; read-out: IC50, inhibition of the kinase activity of IKKε.
T1 construct: His-tag (in-house Sf9 preparation) or GST-tag (purchased Invitrogen preparation); these are alternatives, not both on one protein; host or cells: Sf9 cells
T1 sequence (Q14164 1-716): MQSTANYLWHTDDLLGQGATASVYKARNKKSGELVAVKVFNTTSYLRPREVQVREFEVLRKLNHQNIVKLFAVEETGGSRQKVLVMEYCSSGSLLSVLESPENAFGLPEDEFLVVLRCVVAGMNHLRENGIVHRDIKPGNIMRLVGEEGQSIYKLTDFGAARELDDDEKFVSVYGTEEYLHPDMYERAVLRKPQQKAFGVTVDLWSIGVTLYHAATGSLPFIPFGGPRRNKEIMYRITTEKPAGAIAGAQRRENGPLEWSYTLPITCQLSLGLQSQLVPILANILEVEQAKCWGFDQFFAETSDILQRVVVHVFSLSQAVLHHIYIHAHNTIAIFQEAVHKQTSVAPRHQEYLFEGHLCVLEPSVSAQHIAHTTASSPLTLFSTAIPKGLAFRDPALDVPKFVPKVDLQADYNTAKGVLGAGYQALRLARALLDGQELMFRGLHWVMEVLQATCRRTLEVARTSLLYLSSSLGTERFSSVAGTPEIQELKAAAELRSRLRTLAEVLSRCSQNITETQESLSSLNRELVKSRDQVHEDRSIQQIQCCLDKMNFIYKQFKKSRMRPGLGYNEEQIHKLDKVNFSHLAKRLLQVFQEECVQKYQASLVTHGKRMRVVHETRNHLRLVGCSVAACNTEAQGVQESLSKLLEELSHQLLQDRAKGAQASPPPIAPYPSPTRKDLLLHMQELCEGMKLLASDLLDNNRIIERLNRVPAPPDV
Format: biochemical
Procedure: IKKε enzyme was produced as a His-tag fusion in Sf9 cells or purchased as a GST-tag fusion (Invitrogen, Carlsbad, Calif.). TBK1 enzyme was produced as a His-tag fusion in Sf9 cells. Kinase reactions were carried out in reaction buffer using myelin basic protein (Millipore, Ballerica, Mass.), casein or dephosphorylated casein (Sigma, St. Louis, Mo.) as substrate at an ATP concentration equal to twice the Km,ATP value for each enzyme, corresponding to 32 μM ATP for IKKε and 60 μM ATP for TBK1. Radiolabelled [γ^33]ATP (PerkinElmer, Waltham, Mass.) in the amount of […] (IKKe, “normal”) or 0.7 μCi (IKKε, “sensitized”) or 1.25 μCi (TBK1) was added to each assay. Final enzyme concentrations were 0.1 or 0.015 μg/ml (IKKε) and 0.1 or 0.02 μg/ml (TBK1) for the “normal” and “sensitized” assay, respectively, and “sensitized” assays were conducted using only dephosphorylated casein as substrate. Test compounds (or DMSO solvent as a control) were added prior to initiation of the reactions. Reactions were terminated after 30-45 minutes by adding 3% phosphoric acid. Terminated reactions were transferred to P-81 cellulose phosphate filterplates (Whatman, Inc., Piscataway, N.J.) and washed with 1% phosphoric acid on a vacuum apparatus. After air drying, scintillant (PerkinElmer, Waltham, Mass.) was added and the plates were read on a PerkinElmer TopCount NXT instrument. Counts were normalized to DMSO controls after background subtraction.

Row | Compound | IC50 [nM]
1 | N#Cc1cc(-c2ccnc(Nc3ccnc(CN4CC(O)C4)c3)n2)ccc1OC1CCOCC1 [Example Compound 218, 5-[2-({2-[(3-Hydroxyazetidin-1-yl)methyl]pyridin-4-yl}amino)pyrimidin-4-yl]-2-(tetrahydro-2H-pyran-4-yloxy)benzonitrile] | < 5
2 | CN(C)c1ccc(-c2ccc(Nc3nccc(-c4ccc(OC5CCOCC5)c(C#N)c4)n3)cn2)cn1 [Example Compound 81, 5-(2-{[6′-(Dimethylamino)-2,3′-bipyridin-5-yl]amino}pyrimidin-4-yl)-2-(tetrahydro-2H-pyran-4-yloxy)benzonitrile] | < 5
3 | N#Cc1cc(-c2ccnc(Nc3ccnc(N4CCC[C@@H]4CO)c3)n2)ccc1OC1CCOCC1 [Example Compound 194, 5-[2-({2-[(2R)-2-(Hydroxymethyl)pyrrolidin-1-yl]pyridin-4-yl}amino)pyrimidin-4-yl]-2-(tetrahydro-2H-pyran-4-yloxy)benzonitrile] | < 5
4 | COC1CN(C(=O)c2csc(Nc3nccc(-c4ccc(OC5CCOCC5)c(C#N)c4)n3)n2)C1 [Example Compound 104, 5-[2-({4-[(3-Methoxyazetidin-1-yl)carbonyl]-1,3-thiazol-2-yl}amino)pyrimidin-4-yl]-2-(tetrahydro-2H-pyran-4-yloxy)benzonitrile] | < 5
5 | CN(Cc1ccc(Nc2nccc(-c3ccc(OC4CCOCC4)c(C#N)c3)n2)cn1)C(=O)C1(O)CC1 [Example Compound 197, N-{[5-({4-[3-Cyano-4-(tetrahydro-2H-pyran-4-yloxy)phenyl]pyrimidin-2-yl}amino)pyridin-2-yl]methyl}-1-hydroxy-N-methylcyclopropanecarboxamide] | < 5
6 | Cc1ccc(Nc2nccc(-c3ccc(NC(=O)C4CC4)c(C#N)c3)n2)cn1 [Example Compound 149, N-(2-Cyano-4-{2-[(6-methylpyridin-3-yl)amino]pyrimidin-4-yl}phenyl)cyclopropanecarboxamide] | < 5
7 | CC(=O)N(C)Cc1ccc(Nc2nccc(-c3ccc(OC4CCOCC4)c(C#N)c3)n2)cn1 [Example Compound 208, N-{[5-({4-[3-Cyano-4-(tetrahydro-2H-pyran-4-yloxy)phenyl]pyrimidin-2-yl}amino)pyridin-2-yl]methyl}-N-methylacetamide] | < 5
8 | CCN(CC)c1ccc(Nc2nccc(-c3ccc(OC4CCOCC4)c(C#N)c3)n2)cn1 [Example Compound 9, 5-(2-{[6-(Diethylamino)pyridin-3-yl]amino}pyrimidin-4-yl)-2-(tetrahydro-2H-pyran-4-yloxy)benzonitrile] | < 5

Same assay, conditions: in-vitro IKKε kinase inhibition assays; given as 0.005 μM (5 nM); read-out: IKKε kinase inhibitory activity (IC50 value)

Row | IC50 [nM] | Compound
9 | < 5 | N#Cc1cc(-c2ccnc(Nc3cncc(C(=O)NCCO)c3)n2)ccc1OC1CCOCC1 [Example Compound 13, 5-({4-[3-Cyano-4-(tetrahydro-2H-pyran-4-yloxy)phenyl]pyrimidin-2-yl}amino)-N-(2-hydroxyethyl)pyridine-3-carboxamide]
10 | < 5 | CC(=O)NCc1ccc(Nc2nccc(-c3ccc(OC4CCOCC4)c(C#N)c3)n2)cn1 [Example Compound 68, N-{[5-({4-[3-Cyano-4-(tetrahydro-2H-pyran-4-yloxy)phenyl]pyrimidin-2-yl}amino)pyridin-2-yl]methyl}acetamide]
11 | < 5 | COCCNc1cc(Nc2nccc(-c3ccc(OC4CCOCC4)c(C#N)c3)n2)ccn1 [Example Compound 38, 5-[2-({2-[(2-Methoxyethyl)amino]pyridin-4-yl}amino)pyrimidin-4-yl]-2-(tetrahydro-2H-pyran-4-yloxy)benzonitrile]
12 | < 5 | CN(C)c1ccc(-c2ccc(Nc3nccc(-c4ccc(OC5CCOCC5)c(C#N)c4)n3)cn2)cn1 [Example Compound 81, 5-(2-{[6′-(Dimethylamino)-2,3′-bipyridin-5-yl]amino}pyrimidin-4-yl)-2-(tetrahydro-2H-pyran-4-yloxy)benzonitrile]
13 | < 5 | COC1CN(C(=O)c2csc(Nc3nccc(-c4ccc(OC5CCOCC5)c(C#N)c4)n3)n2)C1 [Example Compound 104, 5-[2-({4-[(3-Methoxyazetidin-1-yl)carbonyl]-1,3-thiazol-2-yl}amino)pyrimidin-4-yl]-2-(tetrahydro-2H-pyran-4-yloxy)benzonitrile]
14 | < 5 | Cc1ccc(Nc2nccc(-c3ccc(NC(=O)C4CC4)c(C#N)c3)n2)cn1 [Example Compound 149, N-(2-Cyano-4-{2-[(6-methylpyridin-3-yl)amino]pyrimidin-4-yl}phenyl)cyclopropanecarboxamide]
15 | < 5 | COC(=O)c1cc(Nc2nccc(-c3ccc(OC4CCOCC4)c(C#N)c3)n2)ccn1 [Example Compound 36, Methyl 4-({4-[3-cyano-4-(tetrahydro-2H-pyran-4-yloxy)phenyl]pyrimidin-2-yl}amino)pyridine-2-carboxylate]
16 | < 5 | CN(Cc1ccc(Nc2nccc(-c3ccc(OC4CCOCC4)c(C#N)c3)n2)cn1)C(=O)C(C)(C)O [Example Compound 56, N-{[5-({4-[3-Cyano-4-(tetrahydro-2H-pyran-4-yloxy)phenyl]pyrimidin-2-yl}amino)pyridin-2-yl]methyl}-2-hydroxy-N,2-dimethylpropanamide]
17 | < 5 | N#Cc1cc(-c2ccnc(Nc3ccnc(CO)c3)n2)ccc1OC1CCOCC1 [Example Compound 66, 5-(2-{[2-(Hydroxymethyl)pyridin-4-yl]amino}pyrimidin-4-yl)-2-(tetrahydro-2H-pyran-4-yloxy)benzonitrile]
18 | < 5 | CCN(CC)c1ccc(Nc2nccc(-c3ccc(OC4CCOCC4)c(C#N)c3)n2)cn1 [Example Compound 9, 5-(2-{[6-(Diethylamino)pyridin-3-yl]amino}pyrimidin-4-yl)-2-(tetrahydro-2H-pyran-4-yloxy)benzonitrile]

What follows are compounds tested on IKKε-mediated phosphorylation of IRF3 (assay: ELISA for in-situ phosphorylation of IRF3 (phospho-Ser396) in HEK293T cells cotransfected with IRF3 and IKKε). Details: Homo sapiens, HEK-293T, 20 h, HEK293T cells, 20 hours; range given from about 1 μM to about 250 nM; read-out: IC50, in-situ IKKε-mediated phosphorylation of IRF3.
Format: cell-based
Procedure: HEK293T cells were cotransfected in a 10-cm dish with IRF3 and IKKε expression plasmids using Lipofectamine 2000 (Invitrogen, Carlsbad, Calif.). The following day, cells were replated at 20,000 per well in 96-well plates and treated with test compounds (compounds according to Formulae I and/or II) for 20 hours. Cell lysates were prepared and analyzed using an ELISA for phospho-Ser396 (anti-IRF3 capture antibody, Santa Cruz Biotechnology, Inc., Santa Cruz, Calif.; anti-p-Ser396 IRF3 detection antibody, Cell Signaling, Danvers, Mass.). pIRF3 levels in compound treated cells were normalized to DMSO treated cells (no compound). Cell viability was assayed in a parallel set of plates to monitor cytotoxic effects of the test compounds (CellTiter-Glo, Promega, Inc., Madison, Wis.). TBK1 activity was tested by Western blotting using a phospho-specific IRF7 antibody. Similar to above, HEK293T cells were transfected with IRF7 and TBK1 expression plasmids. Cells were seeded in 12-well plates at 150,000 per well and treated overnight with test compounds. Protein lysates were prepared and processed for Western blotting followed by detection using a phosphor-Ser477/Ser479 IRF7 antibody (BD Biosciences, San Jose, Calif.)

Row | IC50 [nM] | Compound
19 | 250 to 1000 | Cc1ccc(Nc2nccc(-c3ccc(O[C@@H]4CCN(C(=O)CO)C4)c(C#N)c3)n2)cn1 [Example Compound 118, 2-{[(3R)-1-(Hydroxyacetyl)pyrrolidin-3-yl]oxy}-5-{2-[(6-methylpyridin-3-yl)amino]pyrimidin-4-yl}benzonitrile]
20 | 250 to 1000 | COCCNCc1ccc(Nc2nccc(-c3ccc(OC4CCOCC4)c(C#N)c3)n2)cn1 [Example Compound 50, 5-{2-[(6-{[(2-Methoxyethyl)amino]methyl}pyridin-3-yl)amino]pyrimidin-4-yl}-2-(tetrahydro-2H-pyran-4-yloxy)benzonitrile]

Same assay, conditions: Homo sapiens, HEK-293T, 20 h, HEK293T cells, 20 hours; read-out: IC50, in-situ IKKε-mediated phosphorylation of IRF3

Row | IC50 [nM] | Compound
21 | 1000 to 5000 | N#Cc1cc(-c2ccnc(Nc3cncc(C(=O)N4CCOCC4)c3)n2)ccc1OC1CCOCC1 [Example Compound 172, 5-(2-{[5-(Morpholin-4-ylcarbonyl)pyridin-3-yl]amino}pyrimidin-4-yl)-2-(tetrahydro-2H-pyran-4-yloxy)benzonitrile]
22 | < 100 | CN1CCN(C(=O)c2ncc(Nc3nccc(-c4ccc(OC5CCOCC5)c(C#N)c4)n3)n2C)CC1 [Example Compound 103, 5-[2-({1-Methyl-2-[(4-methylpiperazin-1-yl)carbonyl]-1H-imidazol-5-yl}amino)pyrimidin-4-yl]-2-(tetrahydro-2H-pyran-4-yloxy)benzonitrile]
23 | 1000 to 5000 | N#Cc1cc(-c2ccnc(Nc3cncc(CN4CCN(CCO)CC4)c3)n2)ccc1OC1CCOCC1 [Example Compound 186, 5-{2-[(5-{[4-(2-Hydroxyethyl)piperazin-1-yl]methyl}pyridin-3-yl)amino]pyrimidin-4-yl}-2-(tetrahydro-2H-pyran-4-yloxy)benzonitrile]
24 | < 100 | Cc1nccn1-c1ccc(Nc2nccc(-c3ccc(OC4CCOCC4)c(C#N)c3)n2)cn1 [Example Compound 73, 5-(2-{[6-(2-Methyl-1H-imidazol-1-yl)pyridin-3-yl]amino}pyrimidin-4-yl)-2-(tetrahydro-2H-pyran-4-yloxy)benzonitrile]
